IC50 data for 34 compounds are collected here from patent US8609675B2, “Fused Tricyclic Compounds as novel mTOR inhibitors” (Merck Sharp & Dohme Corp., priority 2009, dated 2013).

For the assay, the target named is human mTOR enzyme (Homo sapiens, UniProt P42345). The assay can be described thus: mTOR Kinase Assay. The assay is classed as biochemical. To be noted: 5 μM ATP, 0.1 μM GST-S6K, rated A, B or C. The procedure: The mTOR assay buffer contained 10 mM hepes (pH 7.4), 50 mM NaCl, 100 μg/ml BSA, 50 mM β-glycerophosphate, 10 mM MnCl2 and 0.5 mM DTT. 20 ng of human mTOR enzyme was preincubated with the compound for 10 minutes. 5 μM ATP and 0.1 μM GST-S6K was added. The reaction was incubated for one hour at 30° C. Anti phospho p70-S6K (about 1.7 ng/well) and anti GST-XL665 (1:1 Ratio with the substrate GST-56K) were added after incubating. The plates were read at least 2 hours after adding the anti phospho p70-S6K and the anti GST-XL665.
IC50 DETERMINATIONS: Dose-response curves were plotted from the inhibition data generated, each in duplicate, from 8 point serial dilutions of inhibitory compounds. Concentration of compound was plotted against % kinase activity, calculated by CPM of treated samples divided by CPM of untreated samples. To generate IC50 values, the dose-response curves were then fitted to a standard sigmoidal curve and IC50 values were derived by nonlinear regression analysis.

Regarding `O=C(O)CC1CCC(c2nc3c(-c4ccc(-c5ccccc5)nc4)cnn3c3[nH]ccc23)CC1` (mixture of isomers) [Compound 29], the IC50 (as a rule, the concentration that gives 50% inhibition) was less than 1 nM.

`Cc1n[nH]c2c1c(C1CCS(=O)(=O)CC1)nc1c(-c3cnc4ccccc4c3)cnn12` [Compound 1, 3-(Quinolin-3-yl)-5-(1,1-dioxo-tetrahydro-2H-thiopyran-4-yl)-6-methyl-dipyrazolo[1,5-a:4′,3′-e]pyrimidine] registered an IC50 of 10 to 100 nM.

`Cc1n[nH]c2c1c(CC1CCC(C)(C(=O)O)CC1)nc1c(-c3ccc(-c4cccnc4)nc3)cnn12` (stereo not shown) [Compound 2] had an IC50 of 1 to 10 nM.

In turn, `Cc1n[nH]c2c1c(CC1CCC(C)(C(=O)O)CC1)nc1c(-c3ccc(-c4ccccc4)nc3)cnn12` (stereo not shown) [Compound 3, 1-methyl-4-((3-methyl-6-(6-phenylpyridin-3-yl)-1H-dipyrazolo[1,5-a:4′,3′-e]pyrimidin-4-yl)methyl)cyclohexanecarboxylic acid] came in with an IC50 of 1 to 10 nM.

For `Cc1n[nH]c2c1c(CC1CCC(C)(C(=O)O)CC1)nc1c(-c3ccc(-c4cnn(C)c4)nc3)cnn12` (stereo not shown) [Compound 4], the IC50 fell in the range of 1 to 10 nM.

In turn, `Cc1n[nH]c2c1c(CC1CCC(C(=O)O)CC1)nc1c(-c3ccc(-c4ccccc4)nc3)cnn12` (stereo not shown) [Compound 5, 4-((3-methyl-6-(6-phenylpyridin-3-yl)-1H-dipyrazolo[1,5-a:4′,3′-e]pyrimidin-4-yl)methyl)cyclohexanecarboxylic acid] registered an IC50 of 1 to 10 nM.

In the case of `Cc1n[nH]c2c1c(CC1CCC(C(=O)O)CC1)nc1c(-c3ccc(-c4cnn(C)c4)nc3)cnn12` (stereo not shown) [Compound 6, 4-((3-methyl-6-(6-(1-methyl-1H-pyrazol-4-yl)pyridin-3-yl)-1H-dipyrazolo[1,5-a:4′,3′-e]pyrimidin-4-yl)methyl)cyclohexanecarboxylic acid], the IC50 was 1 to 10 nM.

The compound `Cc1n[nH]c2c1c([C@H]1CC[C@H](C(=O)O)CC1)nc1c(-c3cnc4ccccc4c3)cnn12` [Compound 7] returned an IC50 of 10 to 100 nM.

`Cc1n[nH]c2c1c([C@H]1CC[C@H](C(=O)O)CC1)nc1c(-c3ccc(-c4ccccc4)nc3)cnn12` [Compound 8, (1R,4R)-4-(3-methyl-6-(6-phenylpyridin-3-yl)-1H-dipyrazolo[1,5-a:4′,3′-e]pyrimidin-4-yl)cyclohexanecarboxylic acid] registered an IC50 of less than 1 nM.

For `O=S1(=O)CCC(c2nc3c(-c4ccc(-c5ccccc5)nc4)cnn3c3[nH]ccc23)CC1` [Compound 9], the IC50 fell in the range of 1 to 10 nM.

The compound `O=S1(=O)CCC(c2nc3c(-c4ccc(-c5cccnc5)nc4)cnn3c3[nH]ncc23)CC1` [Compound 10] had an IC50 of 10 to 100 nM.

On to `O=S1(=O)CCC(c2nc3c(-c4cnc5ccccc5c4)cnn3c3[nH]ccc23)CC1` [Compound 11], for which the IC50 was in the range of 1 to 10 nM.

Regarding `O=S1(=O)CCC(c2nc3c(-c4cnc5ccc(F)cc5c4)cnn3c3[nH]ccc23)CC1` [Compound 12], the IC50 is 1 to 10 nM.

Turning to `O=S1(=O)CCN(c2nc3c(-c4cnc5ccccc5c4)cnn3c3[nH]ccc23)CC1` [Compound 13], the IC50 is 1 to 10 nM.

`O=S1(=O)CCC(c2nc3c(-c4ccc(-c5ccccc5)nc4)cnn3c3[nH]ncc23)CC1` [Compound 15] registered an IC50 of 1 to 10 nM.

Take `O=S1(=O)CCC(c2nc3c(-c4cnc5ccc(F)cc5c4)cnn3c3[nH]ncc23)CC1` [Compound 16]: the IC50 is 10 to 100 nM.

Compound `CCc1n[nH]c2c1c(N1CCS(=O)(=O)CC1)nc1c(-c3cnc4ccccc4c3)cnn12` [Compound 17] registered an IC50 of 1 to 10 nM.

With `Cc1n[nH]c2c1c(C1CCS(=O)(=O)CC1)nc1c(-c3cnc4ccccc4c3)cnn12` [Compound 18], the IC50 was in the range of 1 to 10 nM.

Turning to `Cc1n[nH]c2c1c(C1CCS(=O)(=O)CC1)nc1c(-c3ccc(-c4cccnc4)nc3)cnn12` [Compound 19], the IC50 fell in the range of 1 to 10 nM.

Compound `Cc1n[nH]c2c1c(C1CCS(=O)(=O)CC1)nc1c(-c3ccc(-c4ccccc4)nc3)cnn12` [Compound 20] showed an IC50 of 1 to 10 nM.

`Cc1n[nH]c2c1c(C1CCS(=O)(=O)CC1)nc1c(-c3cnc4ccc(F)cc4c3)cnn12` [Compound 21] displayed an IC50 of 1 to 10 nM.

Turning to `Cc1n[nH]c2c1c(C1CCC(CC(=O)O)CC1)nc1c(-c3ccc(-c4ccccc4)nc3)cnn12` (stereo not shown) [Compound 22, 2-(4-(3-methyl-6-(6-phenylpyridin-3-yl)-1H-dipyrazolo[1,5-a:4′,3′-e]pyrimidin-4-yl)cyclohexyl)acetic acid], the IC50 is less than 1 nM.

With `O=C(O)[C@H]1CC[C@H](c2nc3c(-c4ccc(-c5ccccc5)nc4)cnn3c3[nH]ccc32)CC1` [Compound 23, (trans)-4-(3-(6-phenylpyridin-3-yl)-8H-pyrazolo[1,5-a]pyrrolo[3,2-e]pyrimidin-5-yl)cyclohexanecarboxylic acid], the IC50 is 1 to 10 nM.

The compound `O=C([C@H](O)CO)N1CCC(c2nc3c(-c4ccc(-c5ccccc5)nc4)cnn3c3[nH]ccc23)CC1` [Compound 24, (R)-2,3-dihydroxy-1-(4-(3-(6-phenylpyridin-3-yl)-8H-pyrazolo[1,5-a]pyrrolo[3,2-e]pyrimidin-5-yl)piperidin-1-yl)propan-1-one] displayed an IC50 of 1 to 10 nM.

Take `C[C@@H](O)C(=O)N1CCC(c2nc3c(-c4ccc(-c5ccccc5)nc4)cnn3c3[nH]ccc23)CC1` [Compound 25, (R)-2-hydroxy-1-(4-(3-(6-phenylpyridin-3-yl)-8H-pyrazolo[1,5-a]pyrrolo[3,2-e]pyrimidin-5-yl)piperidin-1-yl)propan-1-one]: the 50% inhibitory concentration (IC50) fell in the range of 1 to 10 nM.

`Cc1n[nH]c2c1c(CNC1CCOCC1)nc1c(-c3cnc4ccccc4c3)cnn12` [Compound 26, N-((3-methyl-6-(quinolin-3-yl)-1H-dipyrazolo[1,5-a:4′,3′-e]pyrimidin-4-yl)methyl)tetrahydro-2H-pyran-4-amine] yielded an IC50 of 1 to 10 nM.

As for `CS(=O)(=O)N1CCC(c2nc3c(-c4ccc(-c5ccccc5)nc4)cnn3c3[nH]ccc23)C1` (stereo not shown) [Compound 27, 5-(1-(methylsulfonyl)pyrrolidin-3-yl)-3-(6-phenylpyridin-3-yl)-8H-pyrazolo[1,5-a]pyrrolo[3,2-e]pyrimidine], the IC50 lay within 1 to 10 nM.

On to `CC1(C(=O)O)CC=C(c2nc3c(-c4ccc(-c5ccccc5)nc4)cnn3c3[nH]ccc23)CC1` (stereo not shown) [Compound 28], for which the IC50 lay in the range of 1 to 10 nM.

In the case of `Cc1n[nH]c2c1c(C1CCN(C(=O)[C@@H](C)O)CC1)nc1c(-c3ccc(-c4ccccc4)nc3)cnn12` [Compound 30, (R)-2-hydroxy-1-(4-(3-methyl-6-(6-phenylpyridin-3-yl)-1H-dipyrazolo[1,5-a:4′,3′-e]pyrimidin-4-yl)piperidin-1-yl)propan-1-one], the IC50 is 1 to 10 nM.

`O=S1(=O)CCC(c2nc3c(-c4cnc5ccc(F)cc5c4)cnn3c3[nH]cc(Cl)c23)CC1` [Compound 31] came in with an IC50 of 1 to 10 nM.

The compound `O=S1(=O)CCC(c2nc3c(-c4ccc(-c5ccccc5)nc4)cnn3c3[nH]cc(Cl)c23)CC1` [Compound 32] registered a concentration for half-maximal inhibition (IC50) of 1 to 10 nM.

Regarding `C[C@@H](O)C(=O)N1CCC(Cc2nc3c(-c4ccc(-c5ccccc5)nc4)cnn3c3[nH]ccc23)CC1` [Compound 33, (R)-2-hydroxy-1-(4-((3-(6-phenylpyridin-3-yl)-8H-pyrazolo[1,5-a]pyrrolo[3,2-e]pyrimidin-5-yl)methyl)piperidin-1-yl)propan-1-one], the IC50 lay within 10 to 100 nM.

As to `C[C@@H](O)C(=O)N1CCC(c2nc3c(-c4ccc(-c5ccccc5)nc4)cnn3c3[nH]cc(Cl)c23)CC1` [Compound 34, (R)-1-(4-(6-chloro-3-(6-phenylpyridin-3-yl)-8H-pyrazolo[1,5-a]pyrrolo[3,2-e]pyrimidin-5-yl)piperidin-1-yl)-2-hydroxypropan-1-one], the IC50 is 1 to 10 nM.

Take `C[C@@H](O)C(=O)N1CCC(Oc2nc3c(-c4ccc(-c5ccccc5)nc4)cnn3c3[nH]ccc23)CC1` [Compound 35, (R)-2-hydroxy-1-(4-(3-(6-phenylpyridin-3-yl)-8H-pyrazolo[1,5-a]pyrrolo[3,2-e]pyrimidin-5-yloxy)piperidin-1-yl)propan-1-one]: the IC50 is 10 to 100 nM.
